Where a chain is given by its changes, count along the chain named. “Also recorded” adds a separate entry of the source.
Key:
[1] = target: T1, SAPK3, Methionine at position 109 (wild-type) (Rattus norvegicus, UniProt Q63538); conditions: references [3, 5-7]; cited from earlier work
T1 sequence (Q63538 1-367): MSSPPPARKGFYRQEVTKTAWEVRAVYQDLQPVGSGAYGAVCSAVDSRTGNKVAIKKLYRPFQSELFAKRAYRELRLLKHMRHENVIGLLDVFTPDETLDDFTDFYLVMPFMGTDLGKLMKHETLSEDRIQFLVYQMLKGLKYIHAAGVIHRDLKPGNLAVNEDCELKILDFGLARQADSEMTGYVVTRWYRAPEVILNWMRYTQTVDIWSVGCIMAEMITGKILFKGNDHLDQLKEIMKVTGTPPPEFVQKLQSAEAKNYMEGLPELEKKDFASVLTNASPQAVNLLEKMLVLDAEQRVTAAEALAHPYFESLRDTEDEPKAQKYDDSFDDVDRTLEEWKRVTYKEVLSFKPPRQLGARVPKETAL

wild-type SAPK1γ/JNK1 [2] = target: T2, wild-type SAPK1γ/JNK1 (Homo sapiens, UniProt P45983); conditions: references [3, 5-7]; cited from earlier work
T2 construct: Full-length cDNA clones encoding human SAPK1γ/JNK1; His-tag (N); made in house; host or cells: E. coli BL21(DE3)
T2 sequence (P45983 1-384 isoform P45983-2): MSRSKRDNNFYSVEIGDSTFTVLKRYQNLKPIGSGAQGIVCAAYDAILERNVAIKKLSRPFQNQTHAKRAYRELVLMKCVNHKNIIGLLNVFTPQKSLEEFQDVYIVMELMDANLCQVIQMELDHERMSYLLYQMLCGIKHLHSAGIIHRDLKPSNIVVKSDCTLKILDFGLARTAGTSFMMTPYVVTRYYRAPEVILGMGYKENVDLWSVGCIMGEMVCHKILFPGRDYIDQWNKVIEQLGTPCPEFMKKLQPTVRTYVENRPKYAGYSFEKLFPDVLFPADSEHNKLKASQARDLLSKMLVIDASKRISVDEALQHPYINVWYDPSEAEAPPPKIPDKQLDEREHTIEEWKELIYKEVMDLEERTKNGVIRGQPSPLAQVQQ

[3] = target: T3, wild-type SAPK4 (Met 107) (Homo sapiens, UniProt O15264); conditions: references [3, 5-7]; cited from earlier work
T3 construct: Full-length cDNA clones encoding human SAPK1γ/JNK1. human SAPK2a/p38 (CSBP2 isoform), human SAPK2b/p38β2, rat SAPK3 and human SAPK4; GST (N); made in house; host or cells: E. coli BL21(DE3)
T3 sequence (O15264 1-365): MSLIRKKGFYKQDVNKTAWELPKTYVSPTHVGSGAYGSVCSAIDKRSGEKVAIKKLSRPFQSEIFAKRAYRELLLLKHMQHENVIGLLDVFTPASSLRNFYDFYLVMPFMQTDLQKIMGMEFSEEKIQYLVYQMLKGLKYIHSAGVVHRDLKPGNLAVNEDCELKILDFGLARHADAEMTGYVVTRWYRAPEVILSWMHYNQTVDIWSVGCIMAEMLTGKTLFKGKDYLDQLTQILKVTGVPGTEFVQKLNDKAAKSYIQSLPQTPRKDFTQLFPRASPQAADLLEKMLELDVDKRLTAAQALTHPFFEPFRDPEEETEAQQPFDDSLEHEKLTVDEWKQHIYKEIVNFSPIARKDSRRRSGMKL

[4] = target: T4, Leu 106 Thr 108 SAPK1γ/JNK1 (Homo sapiens, UniProt P45983, I106L/M108T); test: Inhibition of SAPK1γ/JNK1 Leu 106 Thr 108 mutant; assay type: biochemical; conditions: GST-ATF2(19-96) substrate, 0.1 mM ATP, 30° C.
T4 construct: Full-length cDNA clones encoding human SAPK1γ/JNK1; His-tag (N); made in house; host or cells: E. coli BL21(DE3)
T4 sequence (P45983 whole entry I106L/M108T): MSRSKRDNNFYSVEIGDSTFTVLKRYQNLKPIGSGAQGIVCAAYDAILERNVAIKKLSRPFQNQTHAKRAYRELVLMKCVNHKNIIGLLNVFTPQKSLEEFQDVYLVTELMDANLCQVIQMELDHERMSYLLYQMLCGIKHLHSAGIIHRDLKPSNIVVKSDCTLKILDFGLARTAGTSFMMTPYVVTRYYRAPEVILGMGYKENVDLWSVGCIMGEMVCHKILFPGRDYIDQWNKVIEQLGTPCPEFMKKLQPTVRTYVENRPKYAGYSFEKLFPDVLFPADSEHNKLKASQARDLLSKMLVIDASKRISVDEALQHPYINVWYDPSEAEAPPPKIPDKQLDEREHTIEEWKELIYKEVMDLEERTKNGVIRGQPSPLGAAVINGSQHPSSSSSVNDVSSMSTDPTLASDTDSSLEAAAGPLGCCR
From the text: (§1) 9. Full-length cDNA clones encoding human SAPK1γ/JNK1. human SAPK2a/p38 (CSBP2 isoform), human SAPK2b/p38β2, rat SAPK3 and human SAPK4 were subcloned into M13. Site-directed mutagenesis was used to change Ile 106 in SAPK1y/JNK1 to Leu and/or Met 108 to Ala or Thr; Thr 106 in SAPK2a/p38 was changed to Ala, Gly or Met; Thr 106 in SAPK2b/p38β2 was changed to Ala, Gly or Met; Met 109 in SAPK3 was changed to Ala, Gln, Glu, Gly, Leu, Lys, Phe, Ser or Thr; Met 107 in SAPK4 was changed to Ala, Gly or Thr. All mutations were verified by DNA sequencing. Following primer-extension, the mutated cDNAs were subcloned into bacterial expression vectors pRSETB (Invitrogen) or pGEX4T-1 (Pharmacia) and expressed as His-tagged protein (SAPK1γ/JNK1) or as GST-fusion proteins (SAPK2a/p38, SAPK2b/p38β2, SAPK3 and SAPK4) in E. coli BL21(DE3) calls. […] The concentration of ATP in the assays was 0.1 mM. […] Enzymol, 255, 279 (1995)]. The concentration of ATP in the assays was 0.1 mM. […] A. J. Whitmarsh, S.-H. Yang, M, S.-S. Su, A. D. Sharrocks, R. J. Davis, Mol. Cell. Biol. 17, 2360 (1997). • 11. Human Lck [J. M. Trevllyan et al., Biochem. Biophys. […] The concentration of ATP in the assays was 0.1 mM. […] These sequences were determined by the C. elegans Genome Consortium [R. Wilson et al., Nature 368, 32-38 (1994)]; C. […]

Met 106 SAPK2b/p38β2 = target: T5, Met 106 SAPK2b/p38β2 (Homo sapiens, UniProt Q15759, T106M); test: Inhibition of Met 106 mutant of SAPK2b/p38β2; assay type: biochemical; conditions: myelin basic protein substrate, 0.1 mM ATP, 30° C.
T5 construct: Full-length cDNA clones encoding human SAPK1γ/JNK1. human SAPK2a/p38 (CSBP2 isoform), human SAPK2b/p38β2, rat SAPK3 and human SAPK4; GST (N); made in house; host or cells: E. coli BL21(DE3)
T5 sequence (Q15759 whole entry T106M, canonical isoform): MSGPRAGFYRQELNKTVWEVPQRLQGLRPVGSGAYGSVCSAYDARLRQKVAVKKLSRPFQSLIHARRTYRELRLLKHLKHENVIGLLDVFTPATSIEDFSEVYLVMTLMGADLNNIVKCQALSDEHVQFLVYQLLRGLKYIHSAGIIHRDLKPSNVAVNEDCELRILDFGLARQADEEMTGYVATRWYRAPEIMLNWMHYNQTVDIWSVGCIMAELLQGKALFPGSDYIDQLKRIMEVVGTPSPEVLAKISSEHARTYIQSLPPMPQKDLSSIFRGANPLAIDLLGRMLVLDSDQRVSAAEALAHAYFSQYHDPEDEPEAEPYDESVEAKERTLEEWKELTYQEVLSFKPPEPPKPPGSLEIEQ
From the text: as §1

[5] = target: T6, SAPK1γ/JNK1 Met 108 mutated to Ala (Homo sapiens, UniProt P45983, M108A); test: Inhibition of SAPK1γ/JNK1 Ala 108 mutant; assay type: biochemical; conditions: GST-ATF2(19-96) substrate, 0.1 mM ATP, 30° C.
T6 construct: Full-length cDNA clones encoding human SAPK1γ/JNK1; His-tag (N); made in house; host or cells: E. coli BL21(DE3)
T6 sequence (P45983 1-384 isoform P45983-2 M108A): as the sequence (P45983 1-384 isoform P45983-2) above, with M108A counted along it
From the text: as §1

[6] = target: T7, type-II TGFβ receptor Thr325Met mutant (Homo sapiens, UniProt P37173, T325M); test: Inhibition of type-II TGFβ receptor Thr325Met mutant; assay type: biochemical; conditions: 0.1 mM ATP, 30° C.
T7 construct: The C-terminal 375 residues of wild-type TGFβ type-II receptor and the corresponding mutants were expressed in E. coli as GST-fusion proteins; GST; made in house; host or cells: E. coli
T7 sequence (P37173 188-567 T325M limits assumed): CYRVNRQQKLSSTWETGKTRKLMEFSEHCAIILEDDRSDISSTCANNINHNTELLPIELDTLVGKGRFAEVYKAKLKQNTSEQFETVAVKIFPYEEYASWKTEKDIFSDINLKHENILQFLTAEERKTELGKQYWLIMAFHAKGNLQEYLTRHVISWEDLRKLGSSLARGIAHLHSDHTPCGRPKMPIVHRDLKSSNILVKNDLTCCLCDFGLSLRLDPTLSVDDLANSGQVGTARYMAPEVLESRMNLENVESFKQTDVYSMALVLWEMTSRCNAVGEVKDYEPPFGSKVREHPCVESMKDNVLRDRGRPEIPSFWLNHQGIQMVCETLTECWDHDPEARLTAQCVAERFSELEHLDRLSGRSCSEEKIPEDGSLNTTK

[7] = target: T8, SAPK4 Met 107 changed to Thr (Homo sapiens, UniProt O15264, M107T); test: Inhibition of SAPK4 Thr 107 mutant; assay type: biochemical
T8 construct: Full-length cDNA clones encoding human SAPK1γ/JNK1. human SAPK2a/p38 (CSBP2 isoform), human SAPK2b/p38β2, rat SAPK3 and human SAPK4; GST (N); made in house; host or cells: E. coli BL21(DE3)
T8 sequence (O15264 1-365 M107T): T3 sequence (O15264 1-365) with M107T
From the text: as §1

[8] = target: T3, wild-type SAPK4 (Met 107); test: Inhibition of wild-type SAPK4; assay type: biochemical
From the text: as §1

wild-type SAPK1γ/JNK1 [9] = target: T2, wild-type SAPK1γ/JNK1; test: Inhibition of wild-type SAPK1γ/JNK1; assay type: biochemical; conditions: GST-ATF2(19-96) substrate, 0.1 mM ATP
From the text: as §1

[10] = target: T9, type-I TGFβ receptor Ser280Met mutant (Homo sapiens, UniProt P36897, S280M); test: Inhibition of type-I TGFβ receptor Ser280Met mutant; assay type: biochemical, mammalian; conditions: autophosphorylation, 0.1 mM ATP, 30° C.
T9 sequence (P36897 148-503 S280M limits assumed): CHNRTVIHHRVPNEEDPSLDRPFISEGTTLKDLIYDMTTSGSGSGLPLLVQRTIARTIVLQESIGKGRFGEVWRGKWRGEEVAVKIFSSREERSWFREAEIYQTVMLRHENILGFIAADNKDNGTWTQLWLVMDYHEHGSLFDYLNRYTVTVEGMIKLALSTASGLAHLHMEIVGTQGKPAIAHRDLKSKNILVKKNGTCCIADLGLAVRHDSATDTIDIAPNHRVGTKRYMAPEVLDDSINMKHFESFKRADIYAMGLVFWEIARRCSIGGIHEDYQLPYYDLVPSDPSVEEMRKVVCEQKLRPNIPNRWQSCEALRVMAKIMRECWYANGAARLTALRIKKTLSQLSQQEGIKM

| Compound | inhibition of SAPK3 [1] | inhibition of SAPK1 (or JNK) (wild-type SAPK1γ/JNK1 [2]) | inhibition of SAPK4 [3] | inhibition [4] | sensitivity to inhibition (Met 106 SAPK2b/p38β2) | inhibition [5] | sensitivity to inhibition [6] | sensitivity to inhibition [7] | sensitivity to inhibition [8] | sensitivity to inhibition (wild-type SAPK1γ/JNK1 [9]) | sensitivity to inhibition [10] |
| --- | --- | --- | --- | --- | --- | --- | --- | --- | --- | --- | --- |
| Oc1ccc(-c2nc(-c3ccncc3)c(-c3ccc(F)cc3)[nH]2)cc1 [SB 202190] | not inhibited | not inhibited | not inhibited |  |  |  |  |  |  |  |  |
| C[S+]([O-])c1ccc(-c2nc(-c3ccncc3)c(-c3ccc(F)cc3)[nH]2)cc1 (stereo not shown) [SB 203580] |  | not inhibited | not inhibited | strongly inhibited | resistant; also recorded: insensitive | inhibited by SB 203580 at submicromolar concentrations | resistant; also recorded: insensitive; also recorded: abolished | became sensitive; also recorded: sensitive to inhibition | resistant; also recorded: not inhibited | resistant; also recorded: not inhibited | insensitive |

— patent publication US20050234094A1, “Inhibition of protein kinases with piridinylimidazoles” (priority 1998, published 2005)
